According to US20260365622A1, “CRYSTALLINE CARBAZOLE DERIVATIVE AND METHODS OF MAKING THEREOF” (Raziel Therapeutics Ltd., priority 2022, published 2026):

What was measured:
Format in all cases: physicochemical
[1] = Conversion of Compound A Form 4 on standing in humid conditions; settings: standing at 25 °C and 40 °C and at >30% RH
[2] = Karl Fischer (KF) coulometric titration; settings: in duplicate
Experimental: Water content of crystalline Compound A was determined using KF Coulometric Titration by either direct addition or liquid extraction.
10-20 mg of crystalline Compound A was weighed into a vial. The solid was then manually introduced into the titration cell of a Mettler Toledo C30 Compact Titrator. The vial was back-weighed after the addition of the solid and the weight of the added solid entered on the instrument. Titration was initiated once the sample had fully dissolved in the cell. The water content was calculated automatically by the instrument as a percentage and the data printed. The analysis was carried out in duplicate.
10-20 mg of crystalline Compound A was weighed into a vial, 10-15 mL of the Coulomat was extracted from the cell of a Mettler Toledo C30 Compact Titrator and added to the vial containing the sample. The solid was dissolved by shaking manually or using ultrasonic bath. When complete dissolution was achieved, the solution was injected back into the cell titrator and the weight of the sample added was entered on the instrument. The water content was calculated automatically by the instrument as a percentage and the data printed. The analysis was carried out in duplicate.

[3] = Accelerated stability tests of crystalline Compound A Form 1 (Table 5); settings: 7 days; for Purity after storage: HPLC
Experimental: (§1) XRPD analysis was carried out on a PANalytical X'pert Pro with PIXcel detector (128 channels), scanning the samples between 3 and 35° […]. The material was gently ground (where required) to release any agglomerates and loaded onto a multi-well plate with Kapton or Mylar polymer film to support the sample. The multi-well plate was then placed into the diffractometer and analyzed using Cu K radiation (α1 λ=1.54060 Å; α2 λ=1.54443 Å; β λ=1.39225 Å; α1:α2 ratio=0.5) running in transmission mode (step size 0.0130° 2θ, step time 18.87 s) using 40 kV/40 mA generator settings. Data were visualized and images generated using the HighScore Plus 4.7 desktop application (PANalytical, 2017).
Crystalline Compound A (Form 1) was not changed after storage at room temperature for 7 days, storage at 40 °C/75% RH for 7 days, or storage at 80 °C for 7 days. Purity was determined by HPLC analysis.

[4] = Long-term stability tests of crystalline Compound A Form 1 (Table 6); settings: for Purity after storage: HPLC
Experimental: as §1
Crystalline Compound A (Form 1) was not changed after storage at 25 °C/60% RH for 36 months or storage at 40 °C/75% RH for 6 months. Purity was determined by HPLC analysis.

[5] = Variable humidity X-ray powder diffraction (VH-XRPD); settings: desorption phase, 90% RH to 20% RH; starting from Form 2
Experimental: A known mass of 5-(3,6-dibromo-9H-carbazol-9-yl)-N,N,N-trimethylpentan-1-aminium chloride Form 2 (Compound A Form 2) was analyzed by variable humidity X-ray powder diffraction (VH-XRPD) on a Philips X'Pert Pro Multipurpose diffractometer quipped with a humidity chamber. The samples were scanned between 4 and 35.99° 2θ using Cu K radiation (α1 λ=1.54060 Å; α2=1.54443 Å; β=1.39225 Å; α1:α2 ratio=0.5) running in Bragg-Brentano geometry (step size 0.008° 2θ) using 40 kV/40 mA generator settings. Measurements were performed between 7-90% RH and XRPD scans were collected at each humidity step. The VH-XRPD analysis was conducted an absorption phase between ambient and 90% RH, a desorption phase between 90% RH and 7% RH, and a second absorption phase between 20% and 40% RH.

[6] = 25 °C/60% RH (closed container), 24 months

C[N+](C)(C)CCCCCn1c2ccc(Br)cc2c2cc(Br)ccc21.[Cl-] [Compound A Form 4, 5-(3,6-dibromo-9H-carbazol-9-yl)-N,N,N-trimethylpentan-1-aminium chloride]
Conversion of crystalline form [1]: converted to crystalline Form 1 of Compound A | Water content ([2]; listed as Form 4): 1% w/w %

C[N+](C)(C)CCCCCn1c2ccc(Br)cc2c2cc(Br)ccc21.[Cl-] [Compound A Form 1, 5-(3,6-dibromo-9H-carbazol-9-yl)-N,N,N-trimethylpentan-1-aminium chloride]
XRPD after storage ([3]; 40 °C/75% RH (open vial)): Unchanged | Purity after storage ([3]; 40 °C/75% RH (open vial)): 99.93% | Change after storage ([3]; 40 °C/75% RH): not changed | XRPD after storage ([3]; 80 °C (closed vial)): Unchanged | Purity after storage ([3]; 80 °C (closed vial)): 99.93% | Change after storage ([3]; 80 °C): not changed | XRPD after storage ([3]; Room Temperature (open vial)): Unchanged | Purity after storage ([3]; Room Temperature (open vial)): 99.93% | Change after storage ([3]; room temperature): not changed | Water content ([2]; listed as Form 1): 4.38% w/w % | XRPD after storage ([4]; 25 °C/60% RH (closed container), 3 months): Unchanged | Purity after storage ([4]; 25 °C/60% RH (closed container), 3 months, 131040 min): 99.7% | XRPD after storage ([4]; 25 °C/60% RH (closed container), 6 months): Unchanged | Purity after storage ([4]; 25 °C/60% RH (closed container), 6 months, 263520 min): 99.7% | XRPD after storage ([4]; 25 °C/60% RH (closed container), 12 months): Unchanged | Purity after storage ([4]; 25 °C/60% RH (closed container), 12 months, 525600 min): 99.7% | XRPD after storage [4, 6]: Unchanged | Purity after storage [4, 6]: 99.7% | XRPD after storage ([4]; 25 °C/60% RH (closed container), 36 months): Unchanged | Purity after storage ([4]; 25 °C/60% RH (closed container), 36 months, 1.5768e+06 min): 99.7% | Change after storage ([4]; 25 °C/60% RH, 36 months): not changed | XRPD after storage ([4]; 40 °C/75% RH (closed container), 1 month): Unchanged | Purity after storage ([4]; 40 °C/75% RH (closed container), 1 month, 43200 min): 99.7% | XRPD after storage ([4]; 40 °C/75% RH (closed container), 3 months): Unchanged | Purity after storage ([4]; 40 °C/75% RH (closed container), 3 months, 131040 min): 99.7% | XRPD after storage ([4]; 40 °C/75% RH (closed container), 6 months): Unchanged | Purity after storage ([4]; 40 °C/75% RH (closed container), 6 months, 263520 min): 99.8% | Change after storage ([4]; 40 °C/75% RH, 6 months): not changed

C[N+](C)(C)CCCCCn1c2ccc(Br)cc2c2cc(Br)ccc21.[Cl-] [Compound A Form 3, 5-(3,6-dibromo-9H-carbazol-9-yl)-N,N,N-trimethylpentan-1-aminium chloride]
Water content ([2]; listed as Form 3): 5.3% w/w %

C[N+](C)(C)CCCCCn1c2ccc(Br)cc2c2cc(Br)ccc21.[Cl-] [Compound A Form 2, 5-(3,6-dibromo-9H-carbazol-9-yl)-N,N,N-trimethylpentan-1-aminium chloride]
Crystalline form observed [5]: Crystalline Form 1 of Compound A was observed during the desorption phase between 90% RH and 20% RH
